Values of other authors, collected in US20090318377A1, “MEDICAGENIC ACID SAPONIN AND USES THEREOF” (MEDICAGO INC., priority 2006, published 2009).

Tested on: Syrian Golden hamster
Conditions: average daily dose 128 mg/kg for 4 weeks

For soyasaponin B, the “reduction in high-density lipoprotein (HDL)” value is listed as 33%, the “reduction in plasma cholesterol” value is listed as 20% and the reduction in triglycerides is listed as 18%.
